Experiments:
Assay in all cases: Antimicrobial activity, agar well diffusion
Assay type in all cases: cell-based
Conditions in all cases: Dose 0.6 mg/disk, dwell = 6 mm
[1] = system: Saccharomyces cerevisiae ATCC 9763
Text: (§1) Twenty tested microorganisms including six Gram-positive bacteria (Bacillus subtilis ATCC 6633, Bacillus amyloliquefaciens 4BCL-YT, Staphylococcus aureus ATCC 25923, Listeria monocytogenes NBIMCC 8632, Enterococcus faecalis ATCC 19433), six Gram-negative bacteria (Salmonella enteritidis ATCC 13076, Klebsiella sp.—clinical isolate, Escherichia coli ATCC 25922, Proteus vulgaris ATCC 6380, Pseudomonas aeruginosa ATCC 9027), two yeasts (Candida albicans NBIMCC 74, Saccharomyces cerevisiae ATCC 9763), and six fungi (Aspergillus niger ATCC 1015, Aspergillus flavus, Penicillium sp., Rhizopus sp., Mucor sp.—plant isolates, Fusarium moniliforme ATCC 38932) from the collection of the Department of Microbiology at the University of Food Technologies—Plovdiv, Bulgaria, were selected for the antimicrobial activity test. The antimicrobial activity of the samples was determined by the agar well diffusion method. The tested bacteria B. subtilis and B. amyloliquefaciens were cultured on LBG agar at 30 °C. The test bacteria S. aureus, L. monocytogenes, E. faecalis, S. enteritidis, Klebsiella sp., E. coli, P. vulgaris, and P. aeruginosa were cultured on LBG agar at 37 °C for 24 h. The yeast C. albicans was cultured on MEA at 37 °C, while S. cerevisiae was cultured on MEA at 30 °C for 24 h. The fungi A. niger, A. flavus, Penicillium sp., Rhizopus sp., Mucor sp., and F. moniliforme were grown on MEA at 30 °C for 7 days or until sporulation. The inocula of the tested bacteria/yeasts was prepared by homogenization of a small amount of biomass in 5 mL of sterile 0.5% NaCl. The inocula of tested fungi were prepared by the addition of 5 mL of sterile 0.5% NaCl into the tubes. After stirring by vortex V-1 plus (Biosan), they were filtered and replaced in other tubes before use. The number of viable cells and fungal spores was determined using a bacterial counting chamber Thoma (Poly-Optik, GmbH, Bad Blankenburg, Germany). Their final concentrations were adjusted to 10^8 cfu/mL for bacterial/yeast cells and 10^5 cfu/mL for fungal spores and then inoculated in preliminarily melted and tempered at 45–48 °C LBG/MEA agar media. Next, the inoculated media were transferred in a quantity of 18 mL in sterile Petri plates (d = 90 mm) (Gosselin™, Hazebrouck, France) and allowed to harden. Then, six wells (d = 6 mm) per plate were cut, and triplicates of 60 μL of each extract were pipetted into the agar wells. The Petri plates were incubated in identical conditions. The antimicrobial activity was determined by measuring the diameter of the inhibition zones around the wells on the 24th and 48th h of incubation. Tested microorganisms with inhibition zones of 18 mm or more were considered sensitive; moderately sensitive were those in which the zones were from 12 to 18 mm; resistant were those in which the inhibition zones were up to 12 mm or completely missing.

[2] = system: Candida albicans NBIMCC 74
Text: as §1

[3] = system: Mucor sp.
Text: as §1

[4] = system: Fusarium moniliforme ATCC 38932
Text: as §1

Measured: Inhibition Zones

Nc1ccccc1C(=O)NCCc1cccc(Cl)c1 [Compound 3, 2-amino-N-(3-chlorophenethyl)benzamide]
15 mm: all assays above

— article PMC10530836, “Synthesis, Molecular Docking, and Biological Evaluation of Novel Anthranilic Acid Hybrid and Its Diamides as Antispasmodics” (International Journal of Molecular Sciences, 2023)
